Experimental data: patent US20100048564A1, “FUSED BICYCLIC HETEROARYL DERIVATIVE” (DAIICHI SANKYO COMPANY, LIMITED, priority 2007, published 2010)
Where two headings read alike, the source gives them in different places.

Target: T1, human PPARγ2 (Homo sapiens, UniProt P37231)
T1 construct: expressed in transfected cells; host or cells: human osteosarcoma cell line MG63, transiently transfected with pSG5-hPPARγ and pGV-P2-PPRE
T1 sequence (P37231 1-505): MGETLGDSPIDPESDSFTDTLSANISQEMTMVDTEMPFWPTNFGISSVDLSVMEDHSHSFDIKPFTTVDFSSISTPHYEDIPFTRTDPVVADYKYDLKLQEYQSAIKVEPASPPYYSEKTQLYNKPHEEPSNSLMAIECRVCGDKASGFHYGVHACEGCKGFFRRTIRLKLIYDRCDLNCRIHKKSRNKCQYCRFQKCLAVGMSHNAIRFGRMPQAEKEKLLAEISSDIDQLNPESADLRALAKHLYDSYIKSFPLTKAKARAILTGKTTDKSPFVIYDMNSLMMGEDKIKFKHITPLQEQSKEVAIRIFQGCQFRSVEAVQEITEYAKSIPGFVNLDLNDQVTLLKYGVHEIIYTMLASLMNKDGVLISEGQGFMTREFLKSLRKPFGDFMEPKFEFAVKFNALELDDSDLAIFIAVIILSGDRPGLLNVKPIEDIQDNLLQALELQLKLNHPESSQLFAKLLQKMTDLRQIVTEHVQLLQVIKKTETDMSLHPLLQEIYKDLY
Experiment: Evaluation of PPARγ modulator activity, PPRE luciferase reporter in MG63 cells (Test Example 2)
Format: cell-based
Conditions: for Emax: MG-63; for IC50: in the presence of Compound A, concentration representing (100−Imax)/2; for Imax (%): maximum inhibition of luciferase activity in the presence of Compound A
Experimental: In FIG. 3, the luciferase activity of the positive control group is defined as 100% and the luciferase activity of the control group is defined as 0%.
Polymerase chain reaction (hereinafter “PCR”) primers were designed based on the human PPARγ2 gene sequence (GenBANK accession No. D83233). The recognition sequences for restriction enzyme BglII were added to upstream and downstream regions of a gene encoding human PPARγ2 protein, in which the recognition sequences were necessary for inserting the gene into the restriction site BamHI of the expression plasmid pSG5 (Stratagene) for the gene.
The recognition sequence for restriction enzyme NheI was added to S2 and the recognition sequence for restriction enzyme XhoI was added to AS2 for insertion into the reporter plasmid pGV-P2 (Toyo Ink Mfg. Co., Ltd.).
PCR was carried out using thermostable DNA polymerase Ex-Taq (Takara Shuzo Co., Ltd.) with a human adipose tissue-derived cDNA library (Clontech) as a template and the DNA oligomers S1 and AS1 obtained in Procedure 1 as PCR primers. […] A cycle was repeated 30 times consisting of incubation at 94° C. for one minute, incubation at 55° C. for 30 seconds and incubation at 72° C. for 30 seconds. The resulting DNA fragment of about 1500 bp was partially cleaved by restriction enzyme BglII and inserted into the restriction site BamHI of pSG5 to obtain a human PPARγ expression plasmid pSG5-hPPARγ.
A vector pGV-P2 digest was prepared by digestion with restriction enzymes NheI and XhoI and purification by 1.0% agarose gel electrophoresis. The DNA oligomers S2 and AS2 obtained in Procedure 2 were mixed, incubated in a hot water bath at 94° C. for one minute, and then incubated at 25° C. for one hour to form a double-stranded DNA with S2 and AS2 annealed. Thereafter, the terminals of the double-stranded DNA were phosphorylated using DNA polynucleotide kinase (Toyobo Co., Ltd.) and then ligated to the previously prepared pGV-P2 digest using the restriction sites NheI and XhoI to obtain a reporter plasmid pGV-P2-PPRE having a PPAR response sequence.
The gene was transiently transferred to the human osteosarcoma cell line MG63, and then cells were harvested.
Thereafter, DMSO diluted 20-fold with 10% α-MEM was added to the control group and the positive control group at 5 μl/well. 10% α-MEM was added to the test compound-added group at 95 μl/well. Thereafter, the test compound diluted to various concentrations with DMSO was diluted 20-fold with 10% α-MEM; this was added to the test compound-added group at 5 μl/well.
Thereafter, DMSO was diluted 20-fold with 10% α-MEM; this was added to the control group and the positive control group at 5 μl/well. […] Thereafter, the test compound diluted to various concentrations with DMSO was diluted 20-fold with 10% α-MEM; this was added to the test compound-added group at 5 μl/well.
The cells prepared in Procedures 6 and 7 were cultured for 24 hours and then the medium was removed. […] The mixture was left to stand at room temperature for about 10 minutes and then stirred with a micromixer (TAITEC E-36). The luciferase activity was measured using Analyst (Molecular Devices) and a dose-dependent curve was drawn.
The IC50, Imax, EC50 and Emax of the test compound to be determined are defined as follows.
Here, the concentration of the test compound representing Emax/2 is calculated as EC50. The concentration of the test compound representing (100−Imax)/2 is calculated as IC50. The IC50 and EC50 calculated in this manner were used for evaluating the PPARγ modulator activity.

[1] = maximum luciferase activity by test compound alone, positive control (Compound A) 100%, control 0%, read-out: Emax (%)
[2] = MG63 cells, luciferase activity
[3] = test compound alone, concentration representing Emax/2, MG63 cells, luciferase activity, read-out: EC50

Row | Compound | Emax [1] | IC50 [2] | Imax (%) | EC50 [3] | EC50 | Emax
1 | Cc1cc(Oc2ccc3nc(COc4cccc(C(=O)O)c4)n(C)c3c2)cc(C)c1N.Cl.Cl [Example 2, 3-{[6-(4-Amino-3,5-dimethylphenoxy)-1-methyl-1H-benzimidazol-2-yl]methoxy}benzoic acid dihydrochloride] | 70% | 56.1 nM | −44% | 3.28 nM | – | –
2 | Cl.Cn1c(COc2cccc(C(=O)O)c2)nc2ccc(Oc3cccc(F)c3)cc21 [Example 8, 3-{[6-(3-Fluorophenoxy)-1-methyl-1H-benzimidazol-2-yl]methoxy}benzoic acid hydrochloride] | 39% | 73.3 nM | −34% | 7.72 nM | – | –
3 | Cl.Cn1c(COc2cccc(C(=O)O)c2)nc2ccc(Oc3ccc(Cl)c(F)c3)cc21 [Example 10, 3-{[6-(4-Chloro-3-fluorophenoxy)-1-methyl-1H-benzimidazol-2-yl]methoxy}benzoic acid hydrochloride] | 42% | 33.2 nM | −50% | 2.06 nM | – | –
4 | Cl.Cn1c(COc2cccc(C(=O)O)c2)nc2ccc(Oc3ccc(F)c(Cl)c3)cc21 [Example 12, 3-{[6-(3-Chloro-4-fluorophenoxy)-1-methyl-1H-benzimidazol-2-yl]methoxy}benzoic acid hydrochloride] | 42% | 40.4 nM | −43% | 2.34 nM | – | –
5 | Cl.Cn1c(COc2cccc(C(=O)O)c2)nc2ccc(Oc3ccccc3)cc21 [Example 14, 3-[(1-Methyl-6-phenoxy-1H-benzimidazol-2-yl)methoxy]benzoic acid hydrochloride] | – | – | −35% | – | 51.7 nM | 54%
6 | Cl.Cl.Cn1c(COc2cccc(C(=O)O)c2)nc2ccc(Oc3ccccc3)nc21 [Example 16, 3-[(3-Methyl-5-phenoxy-3H-imidazo[4,5-b]pyridin-2-yl)methoxy]benzoic acid dihydrochloride] | 46% | 402 nM | −44% | 26.4 nM | – | –
